Measurements reported in publication PMC6943527, “Are the Hydantoin-1,3,5-triazine 5-HT6R Ligands a Hope to a Find New Procognitive and Anti-Obesity Drug? Considerations Based on Primary In Vivo Assays and ADME-Tox Profile In Vitro” (Molecules, 2019).
One block for each molecule: values may come before it.

Experiments:
[1] = target: T1, CYP3A4 (Homo sapiens, UniProt P08684); set-up: method as in PMID 28212021; conditions: cited from earlier work
T1 construct: purchased Promega (Madison, WI, USA)

[2] = target: T2, CYP2D6 (Homo sapiens, UniProt P10635); set-up: method as in PMID 28212021; conditions: cited from earlier work
T2 construct: purchased Promega (Madison, WI, USA)

[3] = cited from earlier work
[4] = Hepatotoxicity assay, HepG2 cell viability; format: cell-based; conditions: human, HepG2 hepatoma cells, 100 µM, read-out: HepG2 cell viability, % of the control
Method: The cell-based assays were used to investigate safety of the 5-HT6R ligands. […] During the same study, no effect for KMP-10 was observed. Additional safety tests with the hepatoma HepG2 cell line were performed here to estimate the compounds’ hepatotoxicity. A slight antiproliferative effect was observed only for DJ-18 at 100 µM, where the cell viability was decreased to up to ~83% of the control (Figure 9a).
Hepatotoxicity was estimated using the hepatoma HepG2 (ATCC® HB-8065^TM) cell line according to previously described protocols. The CellTiter 96® AQueous Non-Radioactive Cell Proliferation Assay was obtained from Promega (Madison, WI, USA). The compounds were investigated in quadruplicate at four concentrations (0.1–100 µM) for 72h. The antiproliferative drug DX was used as a positive control at a dose of 1 µM.

[5] = target: 5-HT6; set-up: method as in PMID 30282913; conditions: radioligand binding, average of at least two independent experiments; read-out: Ki 5-HT6 [3H]-LSD; cited from earlier work
[6] = target: D2; set-up: method as in PMID 30282913; conditions: radioligand binding, average of at least two independent experiments; read-out: Ki D2 [3H]-Raclopride; cited from earlier work
[7] = target: 5-HT1A; set-up: method as in PMID 30282913; conditions: radioligand binding, average of at least two independent experiments; read-out: Ki 5-HT1A [3H]-8-OH-DPAT; cited from earlier work
[8] = target: 5-HT7; set-up: method as in PMID 30282913; conditions: radioligand binding, average of at least two independent experiments; read-out: Ki 5-HT7 [3H]-5-CT; cited from earlier work
[9] = tested on: human embryonic kidney (HEK)-293 cells; set-up: method as in PMID 30282913; conditions: highest concentration 100 µM; cited from earlier work
[10] = Parallel artificial membrane permeability assay (PAMPA)
[11] = Metabolic stability and metabolic pathways in human liver microsomes
Method: The pharmacokinetic parameters of compounds were estimated by using human liver microsomes (HLMs) (Sigma-Aldrich, St. Louis, MO, USA). The t1/2 values and intrinsic clearances (CLint) were calculated with IS by using the protocols and formulas proposed by Obach [38]. […] VL was used as the reference unstable drug.

[12] = set-up: method as in PMID 29297106; conditions: earlier studies; cited from earlier work

T1 sequence (P08684 whole entry): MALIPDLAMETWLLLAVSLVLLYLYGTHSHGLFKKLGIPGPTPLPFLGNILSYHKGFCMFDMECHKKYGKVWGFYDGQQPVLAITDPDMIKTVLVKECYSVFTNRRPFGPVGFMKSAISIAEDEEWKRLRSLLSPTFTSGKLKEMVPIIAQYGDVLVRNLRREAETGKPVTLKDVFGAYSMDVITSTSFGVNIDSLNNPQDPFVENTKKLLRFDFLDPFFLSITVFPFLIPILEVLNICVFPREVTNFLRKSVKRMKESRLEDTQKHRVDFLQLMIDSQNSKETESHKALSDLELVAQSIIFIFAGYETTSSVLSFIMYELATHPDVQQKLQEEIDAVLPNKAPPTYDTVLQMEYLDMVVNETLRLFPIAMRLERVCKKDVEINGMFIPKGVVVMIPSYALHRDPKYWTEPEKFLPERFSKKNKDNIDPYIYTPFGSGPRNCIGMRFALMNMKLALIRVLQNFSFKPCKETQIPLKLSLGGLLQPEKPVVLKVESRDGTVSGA
T2 sequence (P10635 whole entry): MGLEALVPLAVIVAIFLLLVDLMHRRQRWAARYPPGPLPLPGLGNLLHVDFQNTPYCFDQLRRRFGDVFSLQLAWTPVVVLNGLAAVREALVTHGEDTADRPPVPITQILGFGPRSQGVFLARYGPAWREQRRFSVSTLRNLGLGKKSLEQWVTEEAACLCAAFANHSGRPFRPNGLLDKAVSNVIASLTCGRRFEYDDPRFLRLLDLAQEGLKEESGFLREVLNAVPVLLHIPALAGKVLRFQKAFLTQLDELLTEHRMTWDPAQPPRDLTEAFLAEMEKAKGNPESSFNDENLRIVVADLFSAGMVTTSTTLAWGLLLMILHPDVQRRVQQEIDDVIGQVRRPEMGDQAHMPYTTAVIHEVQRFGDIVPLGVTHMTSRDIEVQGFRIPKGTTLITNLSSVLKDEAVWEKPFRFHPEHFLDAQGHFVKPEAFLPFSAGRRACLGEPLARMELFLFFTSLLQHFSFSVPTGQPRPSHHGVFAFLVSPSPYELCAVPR

SMILES: COc1ccc2c(c1)c(CN1CCN(C)CC1)cn2S(=O)(=O)c1ccccc1Br.CS(=O)(=O)O.CS(=O)(=O)O.O [SUVN-502, 1-[(2-Bromophenyl)sulfonyl]-5-methoxy-3-[(4-methyl-1-piperazinyl)methyl]-1H-indole Dimesylate Monohydrate]
CYP3A4 inhibition [1]: rather strong inhibitor | CYP2D6 inhibition [2]: weaker inhibitor | BBB-penetration ([3]; after oral administration): good BBB (blood brain barrier)-penetration | t1/2 in vivo ([3]; pharmacokinetics in vivo): 57 min

Papp at 5 h, 200 µM ([10]; PAMPA, pH 7.4): 24.9 ± 0.45 ×10⁻⁶ cm/s | PAMPA ability to penetrate the artificial membrane, fold stronger than caffeine ([10]; vs high-permeable reference caffeine): ~ 1.65 | Metabolic Pathway, metabolite M1 ([11]; HLMs, 120 min incubation): demethylation | Metabolic Pathway, metabolite M2 ([11]; HLMs, 120 min incubation): hydroxylation | Metabolic Pathway, metabolite M3 ([11]; HLMs, 120 min incubation): demethylation and hydroxylation | Metabolic Pathway, metabolite M4 ([11]; HLMs, 120 min incubation): hydroxylation | Intrinsic Clearance CLint ([11]; HLMs, reactions terminated at 5, 15, 30 and 45 min): 4.32 mL/min/kg | t1/2, fold longer than verapamil ([11]; HLMs, vs unstable reference verapamil): ~ 6 fold | half-life ([11]; human, liver microsomes, Half-Life t1/2, HLMs, reactions terminated at 5, 15, 30 and 45 min): 187 min
SMILES: CN1CCN(c2nc(N)nc(CN3C(=O)N(Cc4ccc(Cl)cc4)C(C)(C)C3=O)n2)CC1 [DJ-18]
viability at 72 h, 100 µM [4]: ~83% | Ki [5]: 127 nM | Ki [6]: 4.1 µM | Ki [7]: 23.3 µM | Ki [8]: 3.71 µM | HEK-293 cells viability [9]: statistically significant slight decrease

PAMPA Pe ± SD ([10]; 200 µM in PBS pH 7.4, 5 h, room temperature, triplicate): 0.56 ± 0.13 10^−6 cm/s
SMILES: CCn1cc(C(=O)O)c(=O)c2cc(F)c(N3CCNCC3)cc21 [Norfloxacin, norfloxacin, reference compound]

SMILES: Fc1ccc2c(CCNCc3cccc(OCC(F)(F)C(F)F)c3)c[nH]c2c1 [Idalopirdine]
Amount of visceral fat [12]: significantly reduced | Elevated glucose levels [12]: compensated for elevated glucose levels
